# Assay results published in patent US10624893B2 (priority 2016, dated 2020).
# Where two headings read alike, the source gives them in different places.
# Test system: M. tuberculosis drug resistant strains
# Assay: microbe, parasite or virus in culture
# Format: cell-based
# Conditions: Mycobacterium tuberculosis, cholesterol medium
structure (smiles),measurement,setting,value
"Cc1cccc(OC2CCN(Cc3cc(=O)[nH]c(=O)[nH]3)CC2)c1C [Test Compound, 6-((4-(2,3-dimethylphenoxy)piperidin-1-yl)methyl)pyrimidine-2,4(1H,3H)-dione]",MIC,"ERDMAN, strain Erdman, DS, read-out: MIC 1",0.78 µM
same,MIC,"ERDMAN, strain Erdman, DS, read-out: MIC 2",0.6 µM
same,MIC,"H37RV, strain H37Rv, DS, read-out: MIC 2",0.39 µM
same,MIC,"[…], read-out: MIC 2",0.6 µM
same,MIC,"strain CDC1551, DS, read-out: MIC 1",0.78 µM
same,MIC,"strain CDC1551, DS, read-out: MIC 2",0.39 µM
same,MIC,"strain HN878, DS, read-out: MIC 1",0.78 µM
same,MIC,"strain HN878, DS, read-out: MIC 2",0.6 µM
same,MIC,"strain K03b00DS, DS, read-out: MIC 1",0.3 µM
same,MIC,"strain K03b00DS, DS, read-out: MIC 2",0.2 µM
same,MIC,"strain K04b00DS, DS, read-out: MIC 1",0.39 µM
same,MIC,"strain K07b00DS, DS, read-out: MIC 1",0.6 µM
same,MIC,"strain K07b00DS, DS, read-out: MIC 2",0.39 µM
same,MIC,"strain K08b00DS, DS, read-out: MIC 1",0.6 µM
same,MIC,"strain K08b00DS, DS, read-out: MIC 2",0.39 µM
same,MIC,"strain K11b00DS, DS, read-out: MIC 2",0.78 µM
same,MIC,"strain K12b00DS, DS, read-out: MIC 1",0.2 µM
same,MIC,"strain K12b00DS, DS, read-out: MIC 2",0.6 µM
same,MIC,"strain K13b00DS, DS, read-out: MIC 1",0.78 µM
same,MIC,"strain K13b00DS, DS, read-out: MIC 2",0.6 µM
same,MIC,"strain K14b00DS, DS, read-out: MIC 2",0.6 µM
same,MIC,"strain K16b00DS, DS, read-out: MIC 1",0.39 µM
same,MIC,"strain K16b00DS, DS, read-out: MIC 2",0.2 µM
same,MIC,"strain K35b00DS, DS, read-out: MIC 1",0.6 µM
same,MIC,"strain K35b00DS, DS, read-out: MIC 2",0.39 µM
same,MIC,"strain NIH_G1DS, DS, read-out: MIC 1",0.78 µM
same,MIC,"strain NIH_G1DS, DS, read-out: MIC 2",0.39 µM
same,MIC,"strain NIH_G12, read-out: MIC 1",0.78 µM
same,MIC,"strain NIH_G13, read-out: MIC 1",0.6 µM
